{
  "source": "paper PMC12088962",
  "about": "“Design, synthesis, and biological investigation of new thiazole-based derivatives as multi-targeted inhibitors endowed with antiproliferative, antioxidant, and antibacterial properties” (Frontiers in Chemistry, 2025)",
  "key": {"[1]": {"test_system": "four cancer cell lines (A-549, MCF-7, Panc-1, HT-29)", "assay": "Antiproliferative MTT assay, average over four cancer cell lines", "conditions": "for GI50: read-out: Antiproliferative activity, Average (GI50)"}, "[2]": {"molecular_target": "EGFR (Homo sapiens, UniProt P00533)", "sequence (P00533 669-1210)": "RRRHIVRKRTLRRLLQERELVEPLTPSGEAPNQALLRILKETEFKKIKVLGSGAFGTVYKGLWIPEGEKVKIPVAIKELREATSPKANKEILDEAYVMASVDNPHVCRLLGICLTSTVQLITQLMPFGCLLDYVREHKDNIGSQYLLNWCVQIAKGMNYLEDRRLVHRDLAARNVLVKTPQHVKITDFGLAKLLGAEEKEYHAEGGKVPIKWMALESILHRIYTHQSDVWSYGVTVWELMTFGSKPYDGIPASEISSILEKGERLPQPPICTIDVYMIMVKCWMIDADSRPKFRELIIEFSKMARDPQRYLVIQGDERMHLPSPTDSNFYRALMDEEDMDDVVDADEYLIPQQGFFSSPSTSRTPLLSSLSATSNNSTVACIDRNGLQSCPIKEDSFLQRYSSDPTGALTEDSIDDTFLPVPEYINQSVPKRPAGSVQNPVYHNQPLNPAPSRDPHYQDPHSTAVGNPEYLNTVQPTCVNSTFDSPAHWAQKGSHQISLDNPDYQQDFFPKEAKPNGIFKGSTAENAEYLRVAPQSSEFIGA", "assay": "EGFR-TK inhibitory assay"}, "[3]": {"test_system": "B. subtilis", "assay": "MIC by twofold serial dilution", "format": "cell-based, Bacillus subtilis (ATCC 6051)", "method": "(§1) The antibacterial efficacy of compounds 11b, 11e, and 12b was evaluated against Gram-positive bacteria (S. aureus and B. subtilis) and Gram-negative bacteria (E. coli and P. aeruginosa). Table 5 presents the MICs (nM) of these compounds against the evaluated bacteria, utilizing ciprofloxacin as the reference drug, determined through a twofold serial dilution approach on a 96-well microtiter plate ([Frejat F. O. et al., 2022]).\nas §1, with “The” for “Table 5 presents the”, “the tested” for “these”, “bacteria were” for “bacteria, utilizing ciprofloxacin as the reference drug,”, “2022]). See Appendix A for more details.” for “2022]).”\n(§2) 4.2. Antimicrobial activity\n(§3) 4.2.1. Organisms and culture conditions […]\n(§4) 4.2.2. Minimum inhibitory concentration assay\n(§5) In 96-well microtiter plates and […] of fresh bacterial culture of a single McFarland unit overnight, a double serial dilution of each compound […] in sterile standard saline were prepared to every single source well. Ciprofloxacin antibiotic (5 mg / mL-1) and normal saline were included as standard reference in each assay. The plates were incubated at 37 0C overnight.\n(§6) As an indicator of bacterial growth, […] of p -iodonitrotetrazolium violet (INT) was added to each well and incubated at 37 0C for 30 min. MIC values are recorded as the lowest concentration […]\n(§7) tetrazolidium salt acts as an electron accepter and is reduced to a red colored formazan product by biological activity organisms. Where bacterial growth was inhibited, the solution in the well remained clear after incubation with INT. […]"}, "[4]": {"test_system": "E. coli", "assay": "MIC by twofold serial dilution", "format": "cell-based, Escherichia coli (ATCC 11775)", "conditions": "Escherichia coli; Gram-negative; read-out: Minimum inhibitory concentration (MIC), E. coli", "method": "as §1\nas §1, with “The” for “Table 5 presents the”, “the tested” for “these”, “bacteria were” for “bacteria, utilizing ciprofloxacin as the reference drug,”, “2022]). See Appendix A for more details.” for “2022]).”\nas §2, §3, §4, §5, §6, §7"}, "[5]": {"molecular_target": "VEGFR-2 (Homo sapiens, UniProt P35968)", "sequence (P35968 20-1356)": "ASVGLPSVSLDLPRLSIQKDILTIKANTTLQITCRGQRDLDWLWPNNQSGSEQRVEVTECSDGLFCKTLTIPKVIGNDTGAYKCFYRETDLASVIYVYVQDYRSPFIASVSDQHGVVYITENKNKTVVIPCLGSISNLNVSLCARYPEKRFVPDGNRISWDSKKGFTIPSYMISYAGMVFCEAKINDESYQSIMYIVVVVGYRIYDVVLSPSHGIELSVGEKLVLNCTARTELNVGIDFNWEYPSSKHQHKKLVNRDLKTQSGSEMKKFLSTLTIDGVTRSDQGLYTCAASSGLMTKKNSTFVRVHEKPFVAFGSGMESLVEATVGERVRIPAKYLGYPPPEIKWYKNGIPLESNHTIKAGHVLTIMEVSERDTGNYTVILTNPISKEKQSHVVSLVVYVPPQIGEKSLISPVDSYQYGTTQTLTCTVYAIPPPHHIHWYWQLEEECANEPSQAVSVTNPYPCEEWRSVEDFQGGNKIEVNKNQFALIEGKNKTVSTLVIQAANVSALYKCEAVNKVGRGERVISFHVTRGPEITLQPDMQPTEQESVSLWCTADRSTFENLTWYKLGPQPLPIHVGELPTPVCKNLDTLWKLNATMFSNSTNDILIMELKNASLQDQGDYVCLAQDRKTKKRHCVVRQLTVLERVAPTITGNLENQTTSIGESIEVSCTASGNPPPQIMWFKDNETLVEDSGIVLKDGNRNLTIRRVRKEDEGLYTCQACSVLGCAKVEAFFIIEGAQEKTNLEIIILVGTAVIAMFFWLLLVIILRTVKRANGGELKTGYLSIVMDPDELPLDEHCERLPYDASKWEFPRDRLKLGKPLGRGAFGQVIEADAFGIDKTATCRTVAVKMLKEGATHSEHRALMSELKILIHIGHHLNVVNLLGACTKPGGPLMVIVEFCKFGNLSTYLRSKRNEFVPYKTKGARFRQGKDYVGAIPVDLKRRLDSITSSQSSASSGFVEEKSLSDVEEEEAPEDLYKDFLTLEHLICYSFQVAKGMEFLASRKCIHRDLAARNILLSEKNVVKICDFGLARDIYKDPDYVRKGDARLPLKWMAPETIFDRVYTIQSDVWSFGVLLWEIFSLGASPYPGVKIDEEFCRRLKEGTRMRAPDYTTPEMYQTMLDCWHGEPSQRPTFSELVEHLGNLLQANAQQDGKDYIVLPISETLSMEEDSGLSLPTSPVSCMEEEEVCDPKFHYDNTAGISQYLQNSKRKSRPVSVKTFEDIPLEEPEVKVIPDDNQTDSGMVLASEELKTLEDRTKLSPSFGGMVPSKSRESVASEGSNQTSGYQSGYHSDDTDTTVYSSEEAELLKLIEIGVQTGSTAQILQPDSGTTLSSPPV", "assay": "VEGFR-2 inhibitory assay"}, "[6]": {"test_system": "S. aureus", "assay": "MIC by twofold serial dilution", "format": "cell-based, Staphylococcus aureus (ATCC 12600)", "conditions": "Staphylococcus aureus; Gram-positive; read-out: Minimum inhibitory concentration (MIC), S. aureus", "method": "as §1\nas §1, with “The” for “Table 5 presents the”, “the tested” for “these”, “bacteria were” for “bacteria, utilizing ciprofloxacin as the reference drug,”, “2022]). See Appendix A for more details.” for “2022]).”\nas §2, §3, §4, §5, §6, §7"}, "[7]": {"molecular_target": "E. coli DNA gyrase (Escherichia coli, UniProt P0AES6)", "assay": "DNA gyrase supercoiling assay", "format": "biochemical", "method": "4.2.3. Determination of Inhibitory Activities on E. coli DNA Gyrase.\nAll the final compounds were tested for E. coli DNA gyrase inhibitory activity in a supercoiling assay. Activities were determined on streptavidin -coated 96-well microtiter plates from Thermo scientific Pierce. First, the plates were rehydrated with buffer (20 mM Tris -HCl with pH 7.6, 0.01% […]\nimmobilized. After washing off the unbound oligonucleotide, the enzyme test was performed. The reaction volume of 30 μL in buffer (35 mM Tris-HCl with pH 7.5, 4 mM MgCl 2, 24 mM KCl, 2 […]\n1.5 U of DNA gyrase from E. coli or S. aureus, 0.75 μg of relaxed pNO1 plasmid, and 3 μL solution of the inhibitor in 1 0% DMSO and 0.008% Tween 20. Reaction solutions were incubated at 37 °C […]\nfor 30 min. After that, the TF buffer (50 mM NaOAc with pH 5.0, 50 mM NaCl and 50 mM MgCl2) was added to terminate the enzymatic reaction. After additional incubation for 30 min at rt, during which biotin-oligonucleotide-plasmid triplex was formed, the unbound plasmid was washed off using TF buffer and SybrGOLD in T10 buffer (10 mM Tris HCl wit h pH 8.0 and 1 mM EDTA) was added. The fluorescence was measured with a microplate reader (BioTek Synergy H4, excitation: 485 nm, emission: 535 nm). […]\ntested compounds. GraphPad Prism software was used to calculate the IC50 values. The result is given as the average value of three independent measurements. […]"}, "[8]": {"test_system": "P. aeruginosa", "assay": "MIC by twofold serial dilution", "format": "cell-based, Pseudomonas aeuroginosa (ATCC 10145)", "conditions": "Pseudomonas aeruginosa; Gram-negative; read-out: Minimum inhibitory concentration (MIC), P. aeruginosa", "method": "as §1\nas §1, with “The” for “Table 5 presents the”, “the tested” for “these”, “bacteria were” for “bacteria, utilizing ciprofloxacin as the reference drug,”, “2022]). See Appendix A for more details.” for “2022]).”\nas §2, §3, §4, §5, §6, §7"}, "[9]": {"assay": "in vitro", "conditions": "human, MCF-10A mammary gland epithelial cells (normal cell line)"}, "[10]": {"test_system": "Panc-1 cells", "assay": "Antiproliferative MTT assay"}, "[11]": {"test_system": "HT-29 cells", "assay": "Antiproliferative MTT assay"}, "[12]": {"test_system": "A-549 cells", "assay": "Antiproliferative MTT assay"}, "[13]": {"test_system": "MCF-7 cells", "assay": "Antiproliferative MTT assay"}, "[14]": {"molecular_target": "S. aureus topoisomerase IV", "conditions": "read-out: IC50 for S. aureus topoisomerase IV (internal standard value); value stated in the supplementary method, no reference given; cited from earlier work"}, "[15]": {"test_system": "MCF-10A cells", "conditions": "50 µM"}},
  "note": "Where two headings read alike, the source gives them in different places.",
  "data": [
    {"molecule": "Cc1nc(SCC(=O)c2cc3cc(Br)ccc3oc2=O)sc1C(=O)/C=C/c1ccc(Cl)cc1", "note": "[Compound 11e, (E)-6-Bromo-3-(2-((5-(3-(4-chlorophenyl)acryloyl)-4-methylthiazol-2-yl)thio)acetyl)-2H-chromen-2-one]", "values": [
      {"measurement": "Fold less potent than compound 11f (GI50)", "setting": "[1]", "result": 1.5, "unit": "fold"},
      {"measurement": "GI50", "setting": "[1]; Homo sapiens", "result": 41, "unit": "nM"},
      {"measurement": "IC50", "setting": "[2]", "result": "89 ± 4", "unit": "nM"},
      {"measurement": "Fold less efficient than ciprofloxacin (MIC), B. subtilis", "setting": "[3]", "result": 2.2, "unit": "fold"},
      {"measurement": "MIC", "setting": "[3]; Bacillus subtilis, Gram-positive, read-out: Minimum inhibitory concentration (MIC), B. subtilis", "result": "0.022 ± 0.001", "unit": "µM"},
      {"measurement": "MIC", "setting": "[4]", "result": "0.048 ± 0.003", "unit": "µM"},
      {"measurement": "IC50", "setting": "[5]", "result": "4900 ± 30", "unit": "nM"},
      {"measurement": "MIC", "setting": "[6]", "result": "0.027 ± 0.001", "unit": "µM"},
      {"measurement": "IC50", "setting": "[7]", "result": "190 ± 13", "unit": "nM"},
      {"measurement": "MIC", "setting": "[8]", "result": "0.053 ± 0.003", "unit": "µM"},
      {"measurement": "viability at 96 h, 50 µM", "setting": "[9]", "result": 91, "unit": "%"},
      {"measurement": "IC50", "setting": "[10]; Homo sapiens, PANC-1, read-out: Antiproliferative activity IC50 ± SEM, Panc-1", "result": "40 ± 2", "unit": "nM"},
      {"measurement": "IC50", "setting": "[11]; Homo sapiens, HT-29, read-out: Antiproliferative activity IC50 ± SEM, HT-29", "result": "42 ± 2", "unit": "nM"},
      {"measurement": "IC50", "setting": "[12]; Homo sapiens, A549, read-out: Antiproliferative activity IC50 ± SEM, A-549", "result": "37 ± 2", "unit": "nM"},
      {"measurement": "IC50", "setting": "[13]; Homo sapiens, MCF7, read-out: Antiproliferative activity IC50 ± SEM, MCF-7", "result": "43 ± 2", "unit": "nM"}
    ]},
    {"molecule": "CO[C@@H]1[C@@H](OC(N)=O)[C@@H](O)[C@H](Oc2ccc3c(O)c(NC(=O)c4ccc(O)c(CC=C(C)C)c4)c(=O)oc3c2C)OC1(C)C", "note": "[Novobiocin]", "values": [
      {"measurement": "IC50", "setting": "[14]", "result": 26700, "unit": "nM"}
    ]},
    {"molecule": "(E)-3-(2-((5-(3-(4-Methoxyphenyl)acryloyl)-4-methylthiazol-2-yl)thio) acetyl)-2H-chromen-2-one [Compound 11c]", "values": [
      {"measurement": "Fold less potent than compound 11f (GI50)", "setting": "[1]", "result": "twofold"},
      {"measurement": "GI50", "setting": "[1]; average IC50 over the four cancer cell lines", "result": 55, "unit": "nM"},
      {"measurement": "Cell viability %", "setting": "[15]", "result": 90, "unit": "%"},
      {"measurement": "RA (residual activity of the enzyme), E. Coli DNA gyrase", "setting": "[7]; at 1 μM of compound", "result": 68, "unit": "%"},
      {"measurement": "IC50", "setting": "[10]; read-out: Antiproliferative activity IC50 ± SEM, Panc-1, pancreatic cancer Panc-1, MTT", "result": "54 ± 4", "unit": "nM"},
      {"measurement": "IC50", "setting": "[11]; read-out: Antiproliferative activity IC50 ± SEM, HT-29, colon cancer HT-29, MTT", "result": "57 ± 4", "unit": "nM"},
      {"measurement": "IC50", "setting": "[12]; read-out: Antiproliferative activity IC50 ± SEM, A-549, lung cancer A-549, MTT", "result": "52 ± 4", "unit": "nM"},
      {"measurement": "IC50", "setting": "[13]; read-out: Antiproliferative activity IC50 ± SEM, MCF-7, breast cancer MCF-7, MTT", "result": "56 ± 4", "unit": "nM"}
    ]}
  ]
}
